Results as given in PubChem BioAssay (NCI).
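Assay format: 96-well plates, 48-hour exposure. Abbreviation: GI50, concentration required for 50% inhibition of growth. TGI denotes the concentration required for complete inhibition of growth.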

Experiments:
Test in all cases: NCI tumour cell line growth inhibition, 48 h
[1] = test system: EKVX NSCLC
[2] = test system: U251 CNS
[3] = test system: IGROV1 ovarian
[4] = test system: SK-MEL-28 melanoma
[5] = test system: SK-MEL-2 melanoma
[6] = test system: LOX IMVI melanoma
[7] = test system: MOLT-4 leukemia
[8] = test system: NCI-H460 lung
[9] = test system: SF-295 CNS
[10] = test system: BT-549 breast
[11] = test system: NCI-H23 lung
[12] = test system: OVCAR-3 ovarian
[13] = test system: PC-3 prostate
[14] = test system: SN12C renal
[15] = test system: COLO 205 colon
[16] = test system: UO-31 renal
[17] = test system: SNB-19 CNS
[18] = test system: CAKI-1 renal
[19] = test system: HCT-15 colon
[20] = test system: DU-145 prostate
[21] = test system: MDA-MB-468 breast
[22] = test system: NCI/ADR-RES ovarian
[23] = test system: T-47D breast
[24] = test system: M14 melanoma
[25] = test system: A549 NSCLC
[26] = test system: HL-60(TB) leukemia
[27] = test system: SF-539 CNS
[28] = test system: OVCAR-5 ovarian
[29] = test system: HCC-2998 colon
[30] = test system: SK-OV-3 ovarian
[31] = test system: OVCAR-8 ovarian
[32] = test system: HOP-92 NSCLC
[33] = test system: UACC-62 melanoma
[34] = test system: HT29 colon
[35] = test system: RXF 393 renal
[36] = test system: HOP-62 NSCLC
[37] = test system: NCI-H226 lung
[38] = test system: SR leukemia
[39] = test system: UACC-257 melanoma
[40] = test system: ACHN renal
[41] = test system: SW-620 colon
[42] = test system: SNB-75 CNS
[43] = test system: MDA-MB-435
[44] = test system: MDA-MB-231 breast
[45] = test system: OVCAR-4 ovarian
[46] = test system: 786-0 renal
[47] = test system: K-562 leukemia
[48] = test system: TK-10 renal
[49] = test system: HCT-116 colon
[50] = test system: KM12 colon
[51] = test system: MCF7 breast
[52] = test system: A498 renal
[53] = test system: NCI-H522 lung
[54] = test system: SK-MEL-5 melanoma
[55] = test system: SF-268 CNS
[56] = test system: HS 578T breast
[57] = test system: CCRF-CEM leukemia
[58] = test system: RPMI-8226 leukemia

COc1sc(/C=N/NC(=O)c2[nH]c3ccc(Br)cc3c2-c2ccccc2)cc1Br
GI50 [1]: 5.7 µM | TGI [1]: > 100 µM | GI50 [2]: 3.65 µM | TGI [2]: > 100 µM | GI50 [3]: 3.5 µM | TGI [3]: > 100 µM | GI50 [4]: 4.89 µM | TGI [4]: > 100 µM | GI50 [5]: 5.12 µM | TGI [5]: > 100 µM | GI50 [6]: 2.93 µM | TGI [6]: 35.8 µM | GI50 [7]: 3.16 µM | TGI [7]: 35.6 µM | GI50 [8]: 3.03 µM | TGI [8]: 12.4 µM | GI50 [9]: 2.84 µM | TGI [9]: > 100 µM | GI50 [10]: 3.3 µM | TGI [10]: 8.1 µM | GI50 [11]: 3.67 µM | TGI [11]: > 100 µM | GI50 [12]: 1.2 µM | TGI [12]: 12 µM | GI50 [13]: 3.14 µM | TGI [13]: > 100 µM | GI50 [14]: 2.91 µM | TGI [14]: > 100 µM | GI50 [15]: 0.223 µM | TGI [15]: 0.516 µM | GI50 [16]: 4.21 µM | TGI [16]: > 100 µM | GI50 [17]: 3.98 µM | TGI [17]: > 100 µM | GI50 [18]: 0.892 µM | TGI [18]: > 100 µM | GI50 [19]: 3.27 µM | TGI [19]: > 100 µM | GI50 [20]: 3.36 µM | TGI [20]: > 100 µM | GI50 [21]: 2.18 µM | TGI [21]: 6.88 µM | GI50 [22]: 2.12 µM | TGI [22]: 6.45 µM | GI50 [23]: 45.2 µM | TGI [23]: > 100 µM | GI50 [24]: 2.25 µM | TGI [24]: > 100 µM | GI50 [25]: 3.35 µM | TGI [25]: > 100 µM | GI50 [26]: 1.62 µM | TGI [26]: 5.53 µM | GI50 [27]: 1.93 µM | TGI [27]: 5.51 µM | GI50 [28]: 3.39 µM | TGI [28]: 69.9 µM | GI50 [29]: 3.74 µM | TGI [29]: > 100 µM | GI50 [30]: 0.365 µM | TGI [30]: > 100 µM | GI50 [31]: 0.499 µM | TGI [31]: > 100 µM | GI50 [32]: 26.5 µM | TGI [32]: > 100 µM | GI50 [33]: 0.988 µM | TGI [33]: > 100 µM | GI50 [34]: 1.16 µM | TGI [34]: > 100 µM | GI50 [35]: 4.27 µM | TGI [35]: > 100 µM | GI50 [36]: 0.353 µM | TGI [36]: 37.5 µM | GI50 [37]: 2.87 µM | TGI [37]: 68.9 µM | GI50 [38]: 1.1 µM | TGI [38]: > 100 µM | GI50 [39]: > 100 µM | TGI [39]: > 100 µM | GI50 [40]: 3.27 µM | TGI [40]: > 100 µM | GI50 [41]: 3.28 µM | TGI [41]: > 100 µM | GI50 [42]: 0.359 µM | TGI [42]: 25.3 µM | GI50 [43]: 0.324 µM | TGI [43]: 1.8 µM | GI50 [44]: 3.21 µM | TGI [44]: > 100 µM | GI50 [45]: 9.78 µM | TGI [45]: > 100 µM | GI50 [46]: 2.84 µM | TGI [46]: > 100 µM | GI50 [47]: 0.508 µM | TGI [47]: > 100 µM | GI50 [48]: 88.9 µM | TGI [48]: > 100 µM | GI50 [49]: 1.25 µM | TGI [49]: > 100 µM | GI50 [50]: 3.03 µM | TGI [50]: > 100 µM | GI50 [51]: 1.54 µM | TGI [51]: > 100 µM | GI50 [52]: 5.44 µM | TGI [52]: 39.4 µM | GI50 [53]: 0.259 µM | TGI [53]: 0.686 µM | GI50 [54]: 2.12 µM | TGI [54]: 4.97 µM | GI50 [55]: 2.82 µM | TGI [55]: > 100 µM | GI50 [56]: 1.92 µM | TGI [56]: > 100 µM | GI50 [57]: 2.11 µM | TGI [57]: > 100 µM | GI50 [58]: 1.92 µM | TGI [58]: > 100 µM
